According to US7132553B2, “Product comprising an inhibitor of the transduction of heterotrimeric G protein signals combined with an anti-hypertensive agent for therapeutic use in the treatment of arterial hypertension” (Societe de Conseils de Recherches et d'Applications …, priority 2000, dated 2006):

Assays:
[1] = system: spontaneously hypertensive rats (SHR); experiment: Arterial pressure in anaesthetized spontaneously hypertensive rats (carotid catheter); type: in vivo; settings: SHR rat, single intravenous injection, verapamil 0.1 or 0.3 mg/kg, captopril 1 mg/kg; for time of return of arterial pressure to initial values after injection: G protein inhibitor 1 mg/kg; for effect on arterial pressure (in words): G protein inhibitor 1 mg/kg (FIG. 1)
Protocol: (§1) 13/14 week old male SHR rats (Charles River France) are anaesthetized using pentobarbital (Sanofi) (60 mg/kg/IP). […] After a stabilization period of 10 minutes, the product or two products simultaneously are administered and their effects are monitored for 20 minutes.
(§2) For administration purposes, 7-(2-amino-1-oxo-3-thiopropyl)-8-(cyclohexylmethyl)-2-phenyl-5,6,7,8-tetrahydro-imidazo[1,2a]pyrazine, verapamil (Sigma, USA) and captopril (Sigma, USA) can be dissolved in an aqueous solution of NaCl at 0.9%.

[2] = system: spontaneously hypertensive rats (SHR); experiment: Heart rate in anaesthetized spontaneously hypertensive rats (carotid catheter); type: in vivo; design: Frequency difference (Δ) (reduction in heart rate): unit not given here; settings: SHR rat; for Frequency difference (Δ) (reduction in heart rate): single product, intravenous, monitored 20 minutes; for reduction in heart rate, maximum difference (delta): baseline 328 to 371 beats per minute (FIG. 2)
Protocol: as §1, §2

Structure (SMILES)	time of return of arterial pressure to initial values after injection [1] [min]	effect on arterial pressure (in words) [1]	Frequency difference (Δ) (reduction in heart rate) ([2]; dose 1 mg/kg)	change of heart rate (in words) ([2]; single products, single intravenous injection (FIG. 2))	reduction in heart rate, maximum difference (delta) ([2]; 1 mg/kg intravenous)	reduction in heart rate, maximum difference (delta) ([2]; 0.1 mg/kg intravenous)	reduction in heart rate, maximum difference (delta) ([2]; 0.3 mg/kg intravenous)	Frequency difference (Δ) (reduction in heart rate) ([2]; dose 0.1 mg/kg)	Frequency difference (Δ) (reduction in heart rate) ([2]; dose 0.3 mg/kg)
C[C@H](CS)C(=O)N1CCC[C@H]1C(=O)O [Captopril, captopril]	20	immediate reduction	1	does not change the heart rate at all	–	–	–	–	–
NC(CS)C(=O)N1CCn2cc(-c3ccccc3)nc2C1CC1CCCCC1 (centres unmarked) [Compound 2, 7-(2-amino-1-oxo-3-thiopropyl)-8-(cyclohexylmethyl)-2-phenyl-5,6,7,8-tetrahydroimidazo[1,2a]pyrazine]	20	immediate reduction	44	–	44	–	–	–	–
COc1ccc(CCN(C)CCCC(C#N)(c2ccc(OC)c(OC)c2)C(C)C)cc1OC (centres unmarked) [Verapamil, verapamil]	20	immediate reduction	–	–	–	32	56	28	56
